Several values for one entry are separate records, joined by “and”; a condition that tells them apart may be missing. Equal values may be shown once.
Test system: human bone marrow MSC
Test: Microarray gene expression analysis of MSC (Illumina Human HT12 Expression BeadChip)
Assay type: cell-based
Conditions: Tre(+) 250 μg/mL, 24 h
Protocol: Human bone marrow MSC were expanded and seeded into six (6) T225 flasks using standard growth medium (Table 1). At 95-99% confluency, cells were thoroughly washed with PBS. Three (3) flasks were replenished with basal media containing 250 μg/mL treprostinil, (+)Tre, and the remaining three (3) flasks were replenished with unsupplemented basal media, (−)Tre. After 24 hours of culture, representative images were captured from (+) Tre and (−) Tre cultures. Conditioned media was collected from each replicate, divided into two samples of appropriate volumes, and analyzed separately for: 1) secreted proteins (Myriad RBM InflammationMAP® 1.0) and 2) exosome RNA content. Cells were lysed directly from culture flasks, processed for total RNA isolation, and analyzed for gene expression by microarray (Illumina Human HT12 Expression BeadChip). Microarray gene expression analysis was also performed on MSC from cultures without (−) or with (+) 250 ug/mL treprostinil. Three (3) biological replicates from each condition were analyzed. Of the 77,612 sequences identified among all replicates, only 24,273 were detected above the arbitrary background of 50 counts. 2,984 RNA sequences were unique to Tre(−) cultures, while 1,781 RNA sequences were unique to Tre(+) cultures (panel A). Genes detected in both conditions were further analyzed for differential expression (panel). […] Genes that are expressed only in Tre(−) cultures (that is to say, completely turned off in the Tre(+) cultures) are shown in Table 5.

SMILES: CCCCC[C@H](O)CC[C@@H]1[C@H]2Cc3cccc(OCC(=O)O)c3C[C@H]2C[C@H]1O [treprostinil]
- SLC14A1 (NM_015865) expression, Rep 1-3 (Table 4): 95 counts and 102 counts and 67 counts
- SLC16A6 (NM_004694) expression, Rep 1-3: 975 counts and 1342 counts and 784 counts
- SREBF1 (NM_004176) expression, Rep 1-3: 1709 counts and 1842 counts and 1577 counts
- ST6GALNAC6 (NM_013443) expression, Rep 1-3: 424 counts and 651 counts and 445 counts
- TRH (NM_007117) expression, Rep 1-3: 419 counts and 697 counts and 428 counts
- VEGFA (NM_001025370) expression, Rep 1-3: 4761 counts and 6614 counts and 4293 counts
- VEGFA (NM_001171626) expression, Rep 1-3: 6586 counts and 9874 counts and 6349 counts
- GDNF (NM_199231) expression, AVG (Tre(−) AVG 0): 751 counts
- HAS1 (NM_001523) expression, AVG, second entry (Tre(−) AVG 0): 958 counts
- ST6GALNAC6 (NM_013443) expression, AVG (Tre(−) AVG 2): 506 counts
- ANGPTL4 (NM_139314) expression, AVG (Tre(−) AVG 4): 1759 counts
- ATP6V0D2 (NM_152565) expression, AVG (Tre(−) AVG 10): 646 counts
- SLC16A6 (NM_004694) expression, AVG (Tre(−) AVG 10): 1034 counts
- TRH (NM_007117) expression, AVG (Tre(−) AVG 11): 515 counts
- PDE4B (NM_001037339) expression, AVG (Tre(−) AVG 14): 1196 counts
- NGFR (NM_002507) expression, AVG (Tre(−) AVG 16): 1370 counts
- PDE4D (NM_001197222) expression, AVG (Tre(−) AVG 16): 1677 counts
- SLC4A2 (NM_001199693) expression, AVG (Tre(−) AVG 16): 524 counts
- HAS1 (NM_001523) expression, AVG, first entry (Tre(−) AVG 23): 1728 counts
- ATF3 (NM_001030287) expression, AVG (Tre(−) AVG 26): 1207 counts
- KYNU (NM_003937) expression, AVG (Tre(−) AVG 27): 862 counts
- PDK4 (NM_002612) expression, AVG (Tre(−) AVG 33): 1399 counts
- PDE4D (NM_001197221) expression, AVG (Tre(−) AVG 36): 1124 counts
- STC1 (NM_003155) expression, AVG (Tre(−) AVG 36): 1584 counts
- ATF3 (NM_001674) expression, AVG (Tre(−) AVG 37): 676 counts
- BMP6 (NM_001718) expression, AVG (Tre(−) AVG 39): 1324 counts
- KTN1 (NM_001079522) expression, AVG (Tre(−) AVG 40): 579 counts
- SEC31A (NM_001077207) expression, AVG (Tre(−) AVG 40): 732 counts
- PLOD2 (NM_000935) expression, AVG (Tre(−) AVG 42): 1258 counts
- GDNF (NM_000514) expression, AVG (Tre(−) AVG 43): 786 counts
- PTGS2 (NM_000963) expression, AVG (Tre(−) AVG 46): 10888 counts
- PAQR5 (NM_017705) expression, AVG (Tre(−) AVG 48): 704 counts
- IL11 (NM_000641) expression, AVG (Tre(−) AVG 50): 929 counts
- SCG2 (NM_003469) expression, AVG (Tre(−) AVG 51): 1090 counts
- PITPNC1 (NM_181671) expression, AVG (Tre(−) AVG 52): 824 counts
- IGFBP1 (NM_000596) expression, AVG (Tre(−) AVG 53): 6304 counts
- SLC6A15 (NM_182767) expression, AVG (Tre(−) AVG 54): 1277 counts
- HSD11B1 (NM_005525) expression, AVG (Tre(−) AVG 55): 849 counts
- NR4A2 (NM_006186) expression, AVG (Tre(−) AVG 55): 679 counts
- PTP4A1 (NM_003463) expression, AVG (Tre(−) AVG 58): 685 counts
- SIK1 (NM_173354) expression, AVG (Tre(−) AVG 58): 1183 counts
- IL6 (NM_000600) expression, AVG (Tre(−) AVG 63): 6859 counts
- SMOX (NM_175840) expression, AVG (Tre(−) AVG 77): 955 counts
- PALLD (NM_001166110) expression, AVG (Tre(−) AVG 78): 1033 counts
- DUSP1 (NM_004417) expression, AVG (Tre(−) AVG 85): 1092 counts
- SAT1 (transcript variant 2, non-coding RNA) expression, AVG (Tre(−) AVG 89): 1208 counts
- PRKAG2 (NM_024429) expression, AVG (Tre(−) AVG 91): 7155 counts
- LIPG (NM_006033) expression, AVG (Tre(−) AVG 129): 1702 counts
- IER3 (NM_003897) expression, AVG (Tre(−) AVG 132): 2974 counts
- SREBF1 (NM_004176) expression, AVG (Tre(−) AVG 148): 1709 counts
- IDH1 (NM_005896) expression, AVG (Tre(−) AVG 155): 2039 counts
- C11orf96 (NM_001145033) expression, AVG (Tre(−) AVG 176): 2105 counts
- CD55 (NM_001114752) expression, AVG (Tre(−) AVG 202): 2663 counts
- GPRC5A (NM_003979) expression, AVG (Tre(−) AVG 355): 4684 counts
- CD55 (NM_000574) expression, AVG (Tre(−) AVG 359): 7712 counts
- VEGFA (NM_001025370) expression, AVG (Tre(−) AVG 386): 5223 counts
- GDF15 (NM_004864) expression, AVG (Tre(−) AVG 421): 13505 counts
- TIAM2 (NM_012454) expression, AVG (Tre(−) AVG 504): 20 counts
- KIAA0930 (NM_015264) expression, AVG (Tre(−) AVG 511): 48 counts
- CALD1 (NM_033140) expression, AVG (Tre(−) AVG 523): 0 counts
- MBNL1 (NM_207297) expression, AVG (Tre(−) AVG 526): 46 counts
- NAP1L3 (NM_004538) expression, AVG (Tre(−) AVG 538): 48 counts

Reference: patent US12274684B2, “Treatment of vasculopathy with prostacyclin and mesenchymal stem cells” (United Therapeutics Corporation, priority 2013, dated 2025)
